# Laboratory results reported in patent US20040082550A1, “Tropolone derivative” (priority 2000, published 2004).
# Tested on: promyelocyte leukemia cell strain HL-60
# Experiment: Test for induction of cell differentiation in HL-60 cells (NBT reduction ability)
# Format: cell-based
# Conditions: for Ratio of cells for which differentiation was induced by each compound alone (%): calculated from NBT reduction ability; for Ratio of cells for which differentiation was induced by each compound in combination with 1 × 10^−7 M of HX630 (%): in combination with 1×10^−7 M HX630 (retinoid synergist)
# Experimental: For each of the compounds of the examples, action for inducing cell differentiation was examined for each alone and in combination with 1×10^−7 M of HX630. According to the methods described in Japanese Patent Unexamined Publication (KOKAI) No. (Sho)61-76440/1986, differentiation of the cells of promyelocyte leukemia cell strain HL-60 into granulocytic series cells was determined based on morphological change and measurement of ability to reduce nitro blue tetrazolium (NBT). The ratios (%) of differentiated cells shown in the following table are those calculated from NBT reduction ability. HX630 is a retinoid synergist that enhances actions of retinoids, and the concentrations of −8, −7 and −6 mean that each compound was added at concentrations of 1×10^−8 M, 1×10^−7 M and 1×10^−6 M, respectively.
# [1] = compound concentration -6 (1×10^−6 M)
# [2] = compound concentration -7 (1×10^−7 M)
# [3] = compound concentration -8 (1×10^−8 M)
Structure (SMILES),Ratio of cells for which differentiation was induced by each compound alone (%) (concentration -6 (1×10^−6 M)),Ratio of cells for which differentiation was induced by each compound alone (%) (concentration -7 (1×10^−7 M)),Ratio of cells for which differentiation was induced by each compound alone (%) (concentration -8 (1×10^−8 M)),Ratio of cells for which differentiation was induced by each compound in combination with 1 × 10^−7 M of HX630 (%) [1],Ratio of cells for which differentiation was induced by each compound in combination with 1 × 10^−7 M of HX630 (%) [2],Ratio of cells for which differentiation was induced by each compound in combination with 1 × 10^−7 M of HX630 (%) [3]
Cc1cc2c(cc1N(C)c1ccc(O)c(=O)cc1)C(C)(C)CCC2(C)C [Tp22],18%,2.4%,2.8%,78%,3.3%,2.1%
CC1(C)CCC(C)(C)c2cc(C#Cc3cccc(=O)cc3)ccc21 [Tp149],40%,4%,1.4%,40%,85%,3.5%
CC1(C)CCC(C)(C)c2cc(NC(=O)Nc3ccc(O)c(=O)cc3)ccc21 [Tp30],1.2%,1.5%,1.3%,20%,2.3%,2.5%
COc1ccc(C#Cc2ccc3c(c2)C(C)(C)CCC3(C)C)ccc1=O [Tp141],6.4%,3.3%,2.2%,84%,7%,4.1%
CC1(C)CCC(C)(C)c2cc(-c3cccc(-c4ccc(O)c(=O)cc4)c3)ccc21 [Tp190],0%,32%,1.6%,50%,90%,77%
CC1(C)CCC(C)(C)c2cc(S(=O)(=O)Nc3ccc(O)c(=O)cc3)ccc21 [Tp40],2.3%,0.9%,1.3%,2%,2.5%,1.8%
CC1(C)CCC(C)(C)c2cc(C=CC=CC(=O)Nc3ccc(O)c(=O)cc3)ccc21 [Tp95],0.3%,0.5%,0.5%,1.7%,0.5%,0.8%
CC1(C)CCC(C)(C)c2cc(N=Nc3ccc(O)c(=O)cc3)ccc21 [Tp160],32%,34.4%,18.5%,90%,84%,81%
CC1(C)CCC(C)(C)c2cc(Nc3ccc(O)c(=O)cc3)ccc21 [Tp10],3.3%,2.9%,6.8%,5.6%,2.9%,3%
CC1(C)CCC(C)(C)c2cc(-c3ccc(-c4ccc(O)c(=O)cc4)o3)ccc21 [Tp200],36%,14%,2%,50%,95%,77%
